This note sets out measurements from patent US20190110476A1, “NOVEL ISOTHIAZOLAMIDES, PROCESSES FOR THEIR PREPARATION AND THEIR USE AS FUNGICIDES” (priority 2014, published 2019).

Marks after values point to notes of the source that are not given here.

A short description of the data set: Measurement of LogP values by HPLC on reversed phase columns (EEC directive 79/831 Annex V.A8). The data set is classed as physicochemical. Put shortly: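 Following EEC directive 79/831 Annex V.A8, lipophilicity was derived from retention on reversed-phase HPLC columns. Separate values are given per diastereoisomer, and UV lambda-max (200–400 nm) was read at the peak signals.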

As for `O=C(NCc1ncc(C(F)(F)F)cc1Cl)c1cc(N(Cc2ccccc2)Cc2ccccc2)ns1` [I-162], the LogP is 4.98[a].

In the case of `Cc1c(CNC(=O)c2snc(N)c2Cl)ccc(F)c1F` [I-163], the LogP was 2.23[a].

`Cc1ccc(CNC(=O)c2snc(N)c2Cl)c(F)c1` [I-164]: the LogP is 2.18[a].

As to `Nc1cc(C(=O)NCc2c(F)ccc(F)c2F)sn1` [I-165], the LogP is 1.51[a].

Consider `Nc1cc(C(=O)NCc2ccc(F)c(F)c2)sn1` [I-166], for which the LogP was 1.54[a].

For `CC(=O)Nc1nsc(C(=O)NCC2CCCCC2)c1Cl` [I-167], the LogP is 2.14[a].

With `O=C(Nc1nsc(C(=O)NCC2CCCCC2)c1Cl)c1ccccc1` [I-168], the LogP was 3.19[a].

In the case of `CCCC(=O)Nc1nsc(C(=O)NCC2CCCCC2)c1Cl` [I-170], the LogP is 2.84[a].

As to `COc1ccc(CNC(=O)c2cc(N)ns2)c(F)c1` [I-171], the LogP was 1.48[a].

Regarding `CC(C)(C)C(=O)Nc1nsc(C(=O)NCC2CCCCC2)c1Cl` [I-172], the LogP is 3.18[a].

Turning to `Nc1cc(C(=O)NCc2ccc(Cl)cc2F)sn1` [I-179], the LogP was 1.82[a].

For the compound `Nc1cc(C(=O)NCc2c(F)cc(F)cc2F)sn1` [I-180], the LogP was 1.50[a].

As to `Nc1nsc(C(=O)NCc2ccc(Cl)cc2F)c1Cl` [I-181], the LogP is 2.40[a].

In the case of `Nc1nsc(C(=O)N(Cc2ccccc2)C2CC2)c1Cl` [I-183], the LogP was 2.41[a].

As for `CCc1cccc(C)c1CN(C(=O)c1snc(N)c1Cl)C1CC1` [I-184], the LogP is 3.35[a].

`CS(=O)(=O)N(c1nsc(C(=O)NCc2ccccc2F)c1Cl)S(C)(=O)=O` [I-185]: the LogP was 2.80[a].

With `O=C(NCc1ncc(C(F)(F)F)cc1Cl)c1snc(N(Cc2ccccc2)Cc2ccccc2)c1Br` [I-200], the LogP was 6.06[a].

Regarding `N#Cc1ccc(CNC(=O)c2snc(N)c2Cl)c(F)c1` [I-202], the LogP was 1.64[a].

For the compound `Nc1nsc(C(=O)N(Cc2c(Cl)cccc2Cl)C2CC2)c1Cl` [I-208], the LogP was 3.02[a].

`Nc1nsc(C(=O)N(Cc2ccc(Cl)cc2Cl)C2CC2)c1Cl` [I-209]: the LogP is 3.37[a].

As to `Nc1nsc(C(=O)N(Cc2c(F)cccc2Cl)C2CC2)c1Cl` [I-210], the LogP is 2.73[a].

On to `Nc1nsc(C(=O)N(Cc2ccc(Cl)cc2Cl)C2CCC2)c1Cl` [I-211], for which the LogP is 3.85[a].

As to `Nc1nsc(C(=O)N(Cc2ccc(Cl)cc2Cl)CC2CC2)c1Cl` [I-212], the LogP is 3.74[a].

Consider `CC(C)N(Cc1ccc(Cl)cc1Cl)C(=O)c1snc(N)c1Cl` [I-213], for which the LogP was 3.71[a].

Turning to `CC1(C)CC1N(Cc1ccc(Cl)cc1Cl)C(=O)c1snc(N)c1Cl` (stereo not shown) [I-214], the LogP was 4.12[a].

Regarding `Nc1nsc(C(=O)N(Cc2c(Cl)cccc2C(F)(F)F)C2CC2)c1Cl` [I-215], the LogP is 3.19[a].

On to `Nc1nsc(C(=O)N(Cc2cc(Cl)cc(C(F)(F)F)c2)C2CC2)c1Cl` [I-216], for which the LogP was 3.53[a].

Take `COc1ccc(CNc2nsc(C(=O)NCc3ccc(F)cc3C(F)(F)F)c2Cl)cc1` [I-220]: the LogP is 4.18[a].

As to `COc1ccc(CNc2nsc(C(=O)NCc3ccc(Oc4ccccc4)cc3)c2Cl)cc1` [I-221], the LogP is 4.41[a].

As to `COc1ccc(CNc2nsc(C(=O)NCc3ccc(Oc4ccc(F)cc4)cc3)c2Cl)cc1` [I-222], the LogP is 4.44[a].

Consider `COc1ccc(CNc2nsc(C(=O)NCc3ccc(F)c(Oc4ccccc4)c3)c2Cl)cc1` [I-223], for which the LogP was 4.34[a].

On to `COc1ccc(CNc2nsc(C(=O)NCc3ccc(OC)c(F)c3)c2Cl)cc1` [I-224], for which the LogP was 3.44[a].

Take `COc1ccc(CNc2nsc(C(=O)NCc3ccc(Cl)cc3F)c2Cl)cc1` [I-225]: the LogP was 4.03[a].

With `Nc1nsc(C(=O)NCc2ccc(Oc3ccccc3)cc2)c1Cl` [I-227], the LogP was 2.94[a].

Take `COc1ccc(CNc2nsc(C(=O)NCc3cccc(OC)c3F)c2Cl)cc1` [I-236]: the LogP was 3.46[a].

In the case of `Nc1nsc(C(=O)NCc2ccc(F)c(Oc3ccccc3)c2)c1Cl` [I-237], the LogP was 2.90[a].

With `Nc1nsc(C(=O)NCc2ccc(Oc3ccc(F)cc3)cc2)c1Cl` [I-238], the LogP was 3.00[a].

For the compound `COC(=O)Nc1nsc(C(=O)NCc2ccccc2F)c1Cl` [I-239], the LogP is 1.98[a].

Regarding `COc1ccc(CNC(=O)c2snc(N)c2Cl)cc1F` [I-240], the LogP is 1.91[a].

With `COc1ccc(CNc2nsc(C(=O)NCc3ccc(Cl)cc3)c2Cl)cc1` [I-242], the LogP is 3.99[a].

On to `CC1(C)CC(CNC(=O)c2snc(N)c2Cl)C1` [I-243], for which the LogP was 2.49[a].

For `C[C@H](NC(=O)c1snc(N(Cc2ccccc2)Cc2ccccc2)c1C(F)F)C1CCCCC1` [I-263], the LogP is 6.20[a].

Regarding `C[C@H](NC(=O)c1snc(N(Cc2ccccc2)Cc2ccccc2)c1C1CC1)C1CCCCC1` [I-264], the LogP is 6.20[a].

On to `COc1ccc(CNc2nsc(C(=O)NC3CCCCC3c3ccccc3)c2Cl)cc1` (stereo not shown) [I-267], for which the LogP is 4.69[a].

For the compound `COc1ccc(CNc2nsc(C(=O)NCc3ncc(C(F)(F)F)cc3Cl)c2Cl)cc1` [I-268], the LogP is 4.29[a].

With `COc1ccc(CNc2nsc(C(=O)NC3CCCC3c3ccccc3)c2Cl)cc1` (stereo not shown) [I-269], the LogP was 4.41[a].

For the compound `C[C@H](NC(=O)c1snc(N)c1C(F)F)C1CCCCC1` [I-270], the LogP is 2.96[a].

`C[C@H](NC(=O)c1snc(N)c1C1CC1)C1CCCCC1` [I-271]: the LogP is 2.68[a].

Regarding `O=C(NCc1ccc(F)cc1F)c1snc(NC(=O)C(F)(F)F)c1Cl` [I-280], the LogP is 2.64[a].

For the compound `Nc1cc(C(=O)NCc2cccc(Cl)c2)sn1` [I-281], the LogP is 1.78[a].

For `Nc1cc(C(=O)NCc2ccccc2Cl)sn1` [I-282], the LogP is 1.69[a].

Consider `O=C(NCc1cccc(Cl)c1)c1cc(N(Cc2ccccc2)Cc2ccccc2)ns1` [I-283], for which the LogP was 4.71[a].

As to `O=C(NCc1ccccc1Cl)c1cc(N(Cc2ccccc2)Cc2ccccc2)ns1` [I-284], the LogP is 4.67[a].

As to `O=C(NCc1cc(F)cc(F)c1)c1cc(N(Cc2ccccc2)Cc2ccccc2)ns1` [I-285], the LogP is 4.53[a].

With `Nc1nsc(C(=O)NCc2ncc(C(F)(F)F)cc2Cl)c1Cl` [I-286], the LogP was 2.58[a].

With `Nc1nsc(C(=O)NC2CCCCC2c2ccccc2)c1Cl` (stereo not shown) [I-287], the LogP was 3.02[a].

Regarding `Nc1nsc(C(=O)NC2CCCC2c2ccccc2)c1Cl` (stereo not shown) [I-288], the LogP is 2.71[a].

On to `O=C(NCc1ncc(C(F)(F)F)cc1Cl)c1snc(NC(=O)C2CC2)c1Cl` [I-296], for which the LogP was 2.71[a].

With `O=C(NC1CCCC1c1ccccc1)c1snc(NC(=O)C2CC2)c1Cl` (stereo not shown) [I-297], the LogP was 2.86[a].

Take `O=C(NC1CCCCC1c1ccccc1)c1snc(NC(=O)C2CC2)c1Cl` (stereo not shown) [I-302]: the LogP is 3.19[a].

For `Nc1cc(C(=O)NCc2cc(F)cc(F)c2)sn1` [I-303], the LogP was 4.55[a].

As to `Nc1cc(C(=O)NCc2cccc(F)c2)sn1` [I-304], the LogP was 1.46[a].

For `Nc1cc(C(=O)NCc2ccccc2F)sn1` [I-305], the LogP is 1.41[a].

In the case of `Nc1cc(C(=O)NCc2ccc(Cl)cc2Cl)sn1` [I-306], the LogP was 2.11[a].

On to `Nc1cc(C(=O)NCc2cc(Cl)cc(Cl)c2)sn1` [I-307], for which the LogP was 2.18[a].

As for `Nc1cc(C(=O)NCc2cccc(Cl)c2Cl)sn1` [I-308], the LogP was 2.02[a].

In the case of `O=C(NCc1ccc(F)cc1)c1cc(N(Cc2ccccc2)Cc2ccccc2)ns1` [I-309], the LogP was 4.36[a].

As for `O=C(NCc1cccc(F)c1)c1cc(N(Cc2ccccc2)Cc2ccccc2)ns1` [I-310], the LogP is 4.40[a].

Regarding `O=C(NCc1ccccc1F)c1cc(N(Cc2ccccc2)Cc2ccccc2)ns1` [I-311], the LogP was 4.38[a].

With `O=C(NCc1cc(Cl)cc(Cl)c1)c1cc(N(Cc2ccccc2)Cc2ccccc2)ns1` [I-312], the LogP is 2.90[a].

With `O=C(NCc1cccc(Cl)c1Cl)c1cc(N(Cc2ccccc2)Cc2ccccc2)ns1` [I-313], the LogP is 5.01[a].

On to `O=C(NCc1ccc(Cl)cc1)c1cc(N(Cc2ccccc2)Cc2ccccc2)ns1` [I-314], for which the LogP was 4.85[a].

With `CC(NC(=O)c1snc(N(Cc2ccccc2)Cc2ccccc2)c1-c1ccc(F)cc1)C1CCCCC1` (stereo not shown) [I-317], the LogP was 6.63[a].

Regarding `O=C(NCC1CCCCC1)c1snc(N(Cc2ccccc2)Cc2ccccc2)c1-c1ccc(F)cc1` [I-318], the LogP is 6.27[a].

For `O=C(NC1CCCCC1)c1snc(N(Cc2ccccc2)Cc2ccccc2)c1-c1ccc(F)cc1` [I-319], the LogP was 5.98[a].

As to `O=C(NCc1ccccc1F)c1snc(N(Cc2ccccc2)Cc2ccccc2)c1-c1ccc(F)cc1` [I-320], the LogP was 5.45[a].

Regarding `O=C(NCc1ccc(Cl)cc1)c1snc(N(Cc2ccccc2)Cc2ccccc2)c1-c1ccc(F)cc1` [I-321], the LogP was 5.72[a].

Consider `O=C(NCc1ccc(F)cc1F)c1cc(N(Cc2ccccc2)Cc2ccccc2)ns1` [I-322], for which the LogP is 4.45[a].

`O=C(NCc1ccc(Cl)cc1Cl)c1cc(N(Cc2ccccc2)Cc2ccccc2)ns1` [I-323]: the LogP is 5.17[a].

On to `Nc1nsc(C(=O)NCc2ccc(F)cc2C(F)(F)F)c1Cl` [I-324], for which the LogP was 2.61[a].

Take `COc1cccc(CNC(=O)c2snc(N)c2Cl)c1F` [I-325]: the LogP is 1.91[a].

On to `Cc1ccc(C)c(CNC(=O)c2snc(N)c2Cl)c1` [I-326], for which the LogP is 2.50[a].

In the case of `Nc1nsc(C(=O)NCc2cc(Cl)ccc2C(F)(F)F)c1Cl` [I-327], the LogP is 2.88[a].

For the compound `Cc1cc(C)c(CNC(=O)c2snc(N)c2Cl)cc1C` [I-328], the LogP is 2.78[a].

Turning to `Cc1ccc(C(C)(C)C)c(CNC(=O)c2snc(N)c2Cl)c1` [I-329], the LogP was 3.46[a].
